“And” between values parts separate entries of the source, which are not always exact repeats. Equal values may be shown once. Non-standard residues stand in square brackets, D forms with d. Residues, ends and D or L forms follow the SMILES beside them. *: point of attachment. Dolaproine = CO[C@@H]([C@@H]1CCCN1)[C@@H](C)C(=O)O; Dil = CC[C@H](C)[C@H](NC)[C@@H](CC(=O)O)OC; X1 = C[C@@H](N*)[C@@H](O)c1ccccc1; NMeV = CN[C@H](C(=O)O)C(C)C
Columns and labels:
[1] = system: C4-2 cells (PSMA); assay: In vitro cell viability assay (Cell-Titer Glo), C4-2; type: cell-based; settings: C4-2, 96 h treatment
Description: (§1) Loss of tumour cell viability following treatment with cytotoxic drugs in vitro can be measured by growing cell lines in the presence of increasing concentrations of drug and quantifying the loss of proliferation or metabolic activity using Cell-Titer Glo® Luminescent reagent (Promega). The protocol for PSMA and CD30 overexpressing cell lines describes cell seeding, drug treatment and determination of the cell viability in reference to untreated cells based on ATP synthesis, which is directly correlated to the number of cells present in the well.
(§2) The cell lines listed in Table 2 were maintained following the suppliers' recommendations.
(§3) Adherent PSMA-positive LNCaP and C4-2 cells were detached with TrypLE and resuspended in complete medium. Cells were counted using disposable Neubauer counting chambers and cell density adjusted to 10×10^4 cells/mL for LNCaP and 2×10^4 cells/mL for C4-2, respectively. […]
(§4) The cell viability assay was carried out using the Cell-Titer Glo® Luminescence reagent, as described by the manufacturer's instructions, (Promega Corp. Technical Bulletin TB288; Lewis Phillips G. D, Cancer Res 2008; 68:9280-9290).
(§5) Luminescence was recorded using a Molecular Devices Spectramax i3x plate reader and data subsequently analysed using GraphPad Prism four parameter non-linear regression model. […]

[2] = system: Karpas 299 cells (CD30); assay: In vitro cell viability assay (Cell-Titer Glo), Karpas 299; type: cell-based, Human; settings: Karpas 299, 96 h treatment
Description: Viability was expressed as % of untreated cells and calculated using the following formula: […]

[3] = system: LNCaP cells (PSMA); assay: In vitro cell viability assay (Cell-Titer Glo), LNCaP; type: cell-based; settings: 96 h treatment
Description: as §1, §2, §3, §4, §5

[4] = system: Karpas-299 cells (T-anaplastic large cell lymphoma, ALCL); assay: Karpas-299 mouse xenograft study; type: in vivo, CB17-SCID mice; settings: single i.v. 1 mg/kg on day 12, groups of eight mice
Method: Healthy female CB17-SCID mice (CBySmn.CB17-Prkdcscid/J, Charles River Laboratories) with an average body weight of 18.1 g were used for cell inoculation (Day 0). 24 to 72 h prior to tumour cell injection, the mice were γ-irradiated (1.44 Gy, ^60Co). The animals were maintained in SPF health status according to the FELASA guidelines in housing rooms under controlled environmental conditions.
Tumours were induced by subcutaneous injection of 10^7 Karpas-299 cells (T-anaplastic large cell lymphoma, ALCL) in 200 μL of RPMI 1640 into the right flank. Tumours were measured twice a week with calipers, and the volume was estimated using the formula: […]
Twelve days after tumour implantation (Day 12), the animals were randomised into groups of eight mice using Vivo manager® software (211 mm^3 mean tumour volume) and treatment was initiated. The animals from the vehicle group received a single intravenous (i.v.) injection of PBS. The treated groups were dosed with a single i.v. injection of ADC at 0.8 mg/kg, or Adcetris© (brentuximab vedotin) at 1 mg/kg.
Treatment tolerability was assessed by bi-weekly body weight measurement and daily observation for clinical signs of treatment-related side effects. Mice were euthanized when a humane endpoint was reached (e.g. 1,600 mm^3 tumour volume) or after a maximum of 9 weeks post-dosing. Asterisks within the graphs indicate where animals were euthanized. […]

| Molecule | IC50 [1] [nM] | IC50 [2] | IC50 [3] [nM] | Animals with tumour re-growth ([4]; after day 20) | Animals with no measureable tumour at end of study (day 71) [4] |
| --- | --- | --- | --- | --- | --- |
| CC[C@H](C)[C@@H]([C@@H](CC(=O)N1CCC[C@H]1[C@H](OC)[C@@H](C)C(=O)N[C@H](C)[C@@H](O)c1ccccc1)OC)N(C)C(=O)[C@@H](NC(=O)[C@@H](NC)C(C)C)C(C)C [MMAE, monomethyl auristatin E] (H-[NMeV]V[Dil][Dolaproine]-X1) | 0.71 | 0.15 nM and 0.2 nM | 2.14 |  |  |
| brentuximab vedotin [Adcetris®] |  |  |  | 7/8 | 1/8 |

— patent US11865183B2, “Conjugates and conjugating reagents comprising a linker that includes at least two (−CH2—CH2—O—) units in a ring” (priority 2016, dated 2024)
